# Assay results from US6436917B1, “Non-estrogenic estradiol derivative compounds with anti-oxidative activity” (Jenapharm GmbH & Co. KG, priority 1997, dated 2002).
# Assays:
# [1] = Fe(II) oxidation assay (inhibition of Fe(II)-autooxidation); format: biochemical; conditions: for FE(II)-AUTOXIDATION Inhibition, %: synaptosomal membrane/lipid fractions, 50 μM Fe(II) sulfate, pH 7.4, 10 min at 37° C., test concentration not given
# From the text: The testing of the substances for Fe(II)-autooxidation inhibition activity occurs according to B. Ruiz-Larrea, et al, “Antioxidant effects of estradiol and 2-hydroxyestradiol on iron-induced lipid peroxidation of rat liver microsomes”, Steroids 39 (1994), pp. 383-388 and B. Ruiz-Larrea, et al, Effects of estrogens on the redox chemistry of iron: “A possible mechanism of the antioxidant action of estrogens”, Steroids 60 (1995), pp. 780-783.
# All autooxidation experiments involving the Fe(II) ions were performed in aqueous solutions, which contain synaptosomal membrane/lipid fractions. A 1.0 ml biological sample containing 50 μM Fe(II) sulfate, 45 mM tris-HCl buffer (pH=7.4) and 0.08 mg of synaptosomal proteins were incubated with test substances dissolved in ethanol (10% v/v) for 10 min in a water bath at 37° C., subsequently stopped by addition of 50 μL of a 0.32 M 1,10-phenanthrolene solution and the extinction of Fe(II) phenanthroline complexes at 510 nm was measured.
# All other biochemicals are of the highest analytical grade of purity. The test substances are preferably made in the form of a 20 millimolar stock solution in 95% ethanol and diluted immediately prior to the start of the experiment.
# [2] = Fe(III) reduction assay (stimulation of Fe(III) reduction); format: biochemical; conditions: 25 μM Fe(III) chloride, tris-HCl pH 7.4; test concentration not given
# From the text: The testing of the substances for their ability to stimulate Fe(III) reduction occurs according to B. Ruiz Larrea, et al, “Antioxidant effects of estradiol and 2-hydroxyestradiol on iron-induced lipid peroxidation of rat liver microsomes”, Steroids 39 (1994), p. 383-388 and B. Ruiz-Larrea, et al, Effects of estrogens on the redox chemistry of iron: A possible mechanism of the antioxidant action of estrogens”, Steroids 60 (1995), pp. 780 to 783.
# The biological sample contained the following components: 25 μM Fe(III) chloride in 150 mM tris-HCl (pH=7.4), 15 mM 1,10-phenanthrolene and the substance to be tested, dissolved in an ethanol vehicle. The formation of the Fe(II) phenanthroline complex is registered spectrophotometrically at 510 nm.
# [3] = system: vaginal epithelium of ovariectomized rats; test: Allen-Doisy test, estrogenicity in vivo in ovariectomized rats (vaginal smears); parameters: species or system rat; conditions: one-time subcutaneous administration d1, ovariectomized rats
# Method: Estrogens lead to characteristic changes in vaginal epithelium in ovariectomized rodents. The upper cells become heavily cornified and a strong proliferation occurs. These changes in cell formation were determined by vaginal smears. The occurrence of cornified anuclear epithelial cells is an expression of estrogen-specific activity (Allen-Doisy Test).
# Subcutaneous Testing for Estrogen Activity
# Estrogens lead to characteristic changes in vaginal epithelium with ovariectomized rodents. Strong proliferation and cornification of the upper cell layer occurs. These changes are detectable in cells from vaginal smears. The occurrence of cornified anuclear epithelial cells is an expression of an estrogen-specific activity—i.e. the Allen-Doisy Test—according to R. J. Dorfman, (Hrsg.), Methods in Hormone Research, p. 72 ff, Academic Press, New York, 1969.
# White Wistar Rats (origin: Shoe: WIST=Mol : WIST, n=48) that weighed from 180 to 200 g were supplied, divided randomly into trial groups (n=3 to 5 animals/group), habituated in supporting conditions for about one week and subsequently ovariectomized under anesthesia with ursotami.
# The test substances for subcutaneous and oral administration were formulated in benzyl benzoate/castor oil (1+4) or in polyoxyethylene(50-stearate) by Myrj® (85 mg polyoxyethylene(50-stearate) in 100 ml 0.9% w/v sodium chloride solution).
# The administered volume amounted to 0.2 ml/animal.
# Rats with a weight of about 200 g were ovariectomized under anesthesia with ursotami and about 2 weeks after that the animal was tested in the presence of a castrated vaginal cell formation (dioestrus). After that 0.2 ml per animal of the test substance was administered once subcutaneously. Vaginal smears were taken 24, 48, 54 and 72 hours after the one-time administration of the test substance and subsequent oestrus stages were evaluated(dioestrus=1; proestrus=2; oestrus=3; metoestrus=4). The experiment was ended after four days according to the standard ALLEN-DOISY test. The animals were sacrificed under anesthesia in ether by dislocation of the neck vertebral column, the uterus was prepared and its moist weight (without secretion) was measured. The suprarenal capsules were also prepared and weighed.
# The results of the colpotropic test—the occurrences of oestral vaginal cell forms as reagents per doses group and the uteropic activity(uterus weight) were measured. The average of the uterus weight of the test groups was compared with the average of the vehicular groups and, if necessary, the significance of the differences was determined by a t-test according to STUDENT. The moist weight of the suprarenal capsules of all groups was also determined.
# [4] = system: Synaptosomal membrane fractions (rat); conditions: for IC50: read-out: LIPID PEROXIDATION INHIBITION (IC50 μMol/l), synaptosomal membrane fractions (rat), 30 min at 37° C.; for antioxidative action in lipid peroxidation (in words): compared with 17α-estradiol and 17β-estradiol
# [5] = target: T1, estrogen receptor (Homo sapiens, UniProt P03372); test: Relative binding affinity to estrogen receptor sites; conditions: relative to 17β-estradiol = 100
# T1 sequence (P03372 1-595): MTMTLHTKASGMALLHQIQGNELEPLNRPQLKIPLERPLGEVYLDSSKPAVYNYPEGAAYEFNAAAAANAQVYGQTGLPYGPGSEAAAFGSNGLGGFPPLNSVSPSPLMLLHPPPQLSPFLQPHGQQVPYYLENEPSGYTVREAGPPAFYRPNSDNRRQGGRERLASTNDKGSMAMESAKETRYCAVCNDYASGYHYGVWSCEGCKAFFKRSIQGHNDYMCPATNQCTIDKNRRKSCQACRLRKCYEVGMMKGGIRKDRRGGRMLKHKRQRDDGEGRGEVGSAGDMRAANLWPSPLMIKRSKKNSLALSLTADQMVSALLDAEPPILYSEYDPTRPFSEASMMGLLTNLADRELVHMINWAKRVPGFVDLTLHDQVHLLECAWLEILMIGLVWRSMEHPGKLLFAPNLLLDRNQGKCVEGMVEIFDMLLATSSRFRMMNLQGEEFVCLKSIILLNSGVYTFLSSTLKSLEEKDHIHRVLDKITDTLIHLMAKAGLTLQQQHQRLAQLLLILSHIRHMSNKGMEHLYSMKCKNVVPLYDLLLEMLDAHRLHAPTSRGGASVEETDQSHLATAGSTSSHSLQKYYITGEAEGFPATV
# [6] = target: T1, estrogen receptor; conditions: background; natural 17β-estradiol = 100%; cited from earlier work
# [7] = background statement; cited from earlier work
Structure (SMILES),"FE(II)-AUTOXIDATION Inhibition, % [1]","FE(III)-REDUCTION Stimulation, % [2]",effect on the Fe(II)-autooxidation process (in words) [1],IC50 [4],also measured
C[C@]12CC[C@@H]3c4cc(O)c(O)cc4CC[C@H]3[C@@H]1CC[C@@H]2O [2-hydroxy-17β-estradiol],64.20%,35.26%,,,
C[C@]12CC[C@@H]3c4ccc(O)c(O)c4CC[C@H]3[C@@H]1CC[C@H]2O [4-hydroxy-17α-estradiol],59.51%,32.71%,,,
C[C@]12CC[C@@H]3c4ccc(O)cc4CC[C@H]3[C@@H]1CC[C@H]2O [17α-estradiol],≦1%,≦1%,do not or do not substantial change,8.9 µmol/L,"Allen-Doisy Test, flaking, d1-d4 vaginal scale stage 3 (reagent/group) ([3]; 10 μg/animal): 0/6; Allen-Doisy Test, flaking, d1-d4 vaginal scale stage 3 (reagent/group) ([3]; 100 μg/animal): 6/6"
C[C@]12CC[C@@H]3c4ccc(O)cc4CC[C@H]3[C@@H]1CC[C@@H]2O [17β-estradiol],≦1%,≦1%,do not or do not substantial change,12.4 µmol/L,"Allen-Doisy Test, flaking, d1-d4 vaginal scale stage 3 (reagent/group) ([3]; 0.03 μg/animal): 1/5; Allen-Doisy Test, flaking, d1-d4 vaginal scale stage 3 (reagent/group) ([3]; 0.1 μg/animal): 5/5"
"CN(C)c1ccc(CC2(O)CCC3C4CCc5cc(O)ccc5C4=CCC32C)cc1 (stereo not drawn) [J 844, 17α-4′-dimethylamino-phenylmethyl-estra-1,3,5(10),9(11)-tetraen-3,17-diol]",,,,,relative binding affinity (% binding to estrogen receptor) [5]: 0.7%; binding affinity to estrogen receptor sites [6]: less than 1%
"COc1ccc2c(c1)CC[C@@H]1[C@@H]2CC[C@@]2(C)[C@H]1CC[C@@]2(O)Cc1ccc(N(C)C)cc1 [J 848, 3-methoxy-17α-4′-dimethylamino-phenylmethyl-estra-1,3,5(10)-trien-17-ol]",,,,,"Allen-Doisy Test, flaking, d1-d4 vaginal scale stage 3 (reagent/group) ([3]; 30 μg/animal): 0/5; Allen-Doisy Test, flaking, d1-d4 vaginal scale stage 3 (reagent/group) ([3]; 300 μg/animal): 2/5; estrogen activity in vivo [7]: high estrogen activity"
"C[C@]12CC[C@H]3c4ccc(O)cc4CC[C@@H]3[C@H]1CC[C@H]2O [J 855, 8α, 9β, 14β-estra-1,3,5(10)-trien-3,17α-diol]",,,,,"Allen-Doisy Test, flaking, d1-d4 vaginal scale stage 3 (reagent/group) ([3]; 1000 μg/animal): 5/5; Allen-Doisy Test, flaking, d1-d4 vaginal scale stage 3 (reagent/group) ([3]; 10000 μg/animal): 5/5"
"Cc1ccc(O)c2c1CC[C@@H]1[C@@H]2CC[C@]2(C)[C@@H](O)CC[C@@H]12 [J 1178, 4-methyl-estra-1,3,5(10)-trien-1,17β-diol]",22.26%,19.23%,have the ability to inhibit the Fe(II)-autooxidation process,1.7 µmol/L,"relative binding affinity (% binding to estrogen receptor) [5]: 0.04%; Allen-Doisy Test, flaking, d1-d4 vaginal scale stage 3 (reagent/group) ([3]; 1000 μg/animal): 0/5; Allen-Doisy Test, flaking, d1-d4 vaginal scale stage 3 (reagent/group) ([3]; 10000 μg/animal): 1/5; antioxidative action in lipid peroxidation (in words) [4]: considerably stronger antioxidative action"
"Cc1ccc(O)c2c1CC[C@@H]1[C@@H]2CC[C@]2(C)[C@H](O)CC[C@@H]12 [J 1179, 4-methyl-estra-1,3,5(10)-trien-1,17α-diol]",26.07%,21.41%,have the ability to inhibit the Fe(II)-autooxidation process,1.94 µmol/L,"relative binding affinity (% binding to estrogen receptor) [5]: <0.03%; Allen-Doisy Test, flaking, d1-d4 vaginal scale stage 3 (reagent/group) ([3]; 10000 μg/animal): 0/5; antioxidative action in lipid peroxidation (in words) [4]: considerably stronger antioxidative action"
"Cc1cc(C(C)(C)C)c(O)c(C(C)(C)C)c1 [butyrohydroxytoluene (BHT), butyrohydroxytoluene]",,,,0.95 µmol/L,
"Cc1c(C)c2c(c(C)c1O)CC[C@@](C)(CCC[C@H](C)CCC[C@H](C)CCCC(C)C)O2 [α-tocopherol (Vitamin E), α-tocopherol]",,,,117 µmol/L,
